Test results taken from the NIST ThermoML archive (doi:10.1021/je049671t).

Experiment: xn = mol fraction of the nth substance listed
Conditions: Liquid, Vibrating tube method

CCCC [butane] + CCC
Conditions	mass density [kg/m3]
239.04 K, 463.7 kPa, x2 = 0.25	622.82
239.04 K, 943.7 kPa, x2 = 0.25	623.31
239.04 K, 1507.7 kPa, x2 = 0.25	623.9
239.04 K, 1962.4 kPa, x2 = 0.25	624.35
239.04 K, 2486.4 kPa, x2 = 0.25	624.89
239.04 K, 3058.3 kPa, x2 = 0.25	625.46
239.04 K, 3473.7 kPa, x2 = 0.25	625.88
239.04 K, 3994 kPa, x2 = 0.25	626.39
239.04 K, 4514.6 kPa, x2 = 0.25	626.9
239.04 K, 4950 kPa, x2 = 0.25	627.33
239.04 K, 5524.3 kPa, x2 = 0.25	627.9
239.04 K, 6029.4 kPa, x2 = 0.25	628.39
239.04 K, 6518 kPa, x2 = 0.25	628.86
239.04 K, 6930.6 kPa, x2 = 0.25	629.26
240 K, 478.5 kPa, x2 = 0.5	606.78
240 K, 514.9 kPa, x2 = 0.75	589.83
240 K, 996.7 kPa, x2 = 0.5	607.38
240 K, 1006.3 kPa, x2 = 0.75	590.44
240 K, 1479 kPa, x2 = 0.5	607.88
240 K, 1505.4 kPa, x2 = 0.75	591.03
240 K, 1962.4 kPa, x2 = 0.5	608.42
240 K, 2024.2 kPa, x2 = 0.75	591.63
240 K, 2491.6 kPa, x2 = 0.5	609
240 K, 2519.5 kPa, x2 = 0.75	592.21
240 K, 2956 kPa, x2 = 0.5	609.51
240 K, 3022.7 kPa, x2 = 0.75	592.8
240 K, 3501.4 kPa, x2 = 0.5	610.09
240 K, 3519.4 kPa, x2 = 0.75	593.39
240 K, 3952.5 kPa, x2 = 0.5	610.58
240 K, 4031.2 kPa, x2 = 0.75	593.97
240 K, 4493.1 kPa, x2 = 0.5	611.14
240 K, 4526.8 kPa, x2 = 0.75	594.51
240 K, 4946.9 kPa, x2 = 0.75	594.99
240 K, 4972.1 kPa, x2 = 0.5	611.66
240 K, 5472.1 kPa, x2 = 0.5	612.19
240 K, 5521.6 kPa, x2 = 0.75	595.64
240 K, 6000.1 kPa, x2 = 0.5	612.74
240 K, 6044.8 kPa, x2 = 0.75	596.2
240 K, 6502.7 kPa, x2 = 0.5	613.25
240 K, 6539.6 kPa, x2 = 0.75	596.77
240 K, 6973.1 kPa, x2 = 0.5	613.74
240 K, 7045.6 kPa, x2 = 0.75	597.3
260 K, 489.6 kPa, x2 = 0.75	566.44
260 K, 495.8 kPa, x2 = 0.5	585.02
260 K, 524.1 kPa, x2 = 0.25	600.69
260 K, 996.9 kPa, x2 = 0.75	567.21
260 K, 1001.1 kPa, x2 = 0.5	585.74
260 K, 1004.9 kPa, x2 = 0.25	601.3
260 K, 1482.5 kPa, x2 = 0.25	601.91
260 K, 1504.2 kPa, x2 = 0.75	567.97
260 K, 1506.4 kPa, x2 = 0.5	586.42
260 K, 1989.9 kPa, x2 = 0.25	602.54
260 K, 2003.6 kPa, x2 = 0.75	568.71
260 K, 2004.6 kPa, x2 = 0.5	587.1
260 K, 2508.4 kPa, x2 = 0.75	569.45
260 K, 2517.2 kPa, x2 = 0.5	587.78
260 K, 2521.3 kPa, x2 = 0.25	603.2
260 K, 3004 kPa, x2 = 0.25	603.79
260 K, 3014.9 kPa, x2 = 0.5	588.45
260 K, 3015.6 kPa, x2 = 0.75	570.19
260 K, 3449.6 kPa, x2 = 0.25	604.34
260 K, 3495.5 kPa, x2 = 0.75	570.88
260 K, 3506 kPa, x2 = 0.5	589.1
260 K, 4004.5 kPa, x2 = 0.5	589.73
260 K, 4006.2 kPa, x2 = 0.75	571.62
260 K, 4007 kPa, x2 = 0.25	605.01
260 K, 4494.5 kPa, x2 = 0.75	572.27
260 K, 4511.7 kPa, x2 = 0.25	605.63
260 K, 4525.9 kPa, x2 = 0.5	590.39
260 K, 5017.4 kPa, x2 = 0.5	591.03
260 K, 5017.7 kPa, x2 = 0.25	606.24
260 K, 5022.8 kPa, x2 = 0.75	573.01
260 K, 5508.1 kPa, x2 = 0.75	573.69
260 K, 5512.4 kPa, x2 = 0.25	606.82
260 K, 5513.7 kPa, x2 = 0.5	591.66
260 K, 6015.4 kPa, x2 = 0.5	592.29
260 K, 6034.1 kPa, x2 = 0.25	607.43
260 K, 6049.2 kPa, x2 = 0.75	574.41
260 K, 6498.8 kPa, x2 = 0.75	575.04
260 K, 6503.8 kPa, x2 = 0.25	607.98
260 K, 6512.1 kPa, x2 = 0.5	592.9
260 K, 6943 kPa, x2 = 0.75	575.6
260 K, 6986.6 kPa, x2 = 0.5	593.49
260 K, 7011.2 kPa, x2 = 0.25	608.56
280 K, 524.1 kPa, x2 = 0.25	578.3
280 K, 533.2 kPa, x2 = 0.5	561.24
280 K, 994.1 kPa, x2 = 0.25	579.05
280 K, 996.1 kPa, x2 = 0.5	562.05
280 K, 1496.7 kPa, x2 = 0.25	579.83
280 K, 1503.2 kPa, x2 = 0.5	562.93
280 K, 1506.3 kPa, x2 = 0.75	543.19
280 K, 2004.1 kPa, x2 = 0.5	563.79
280 K, 2012.9 kPa, x2 = 0.75	544.18
280 K, 2015.5 kPa, x2 = 0.25	580.63
280 K, 2501.9 kPa, x2 = 0.5	564.62
280 K, 2503.9 kPa, x2 = 0.25	581.38
280 K, 2509.6 kPa, x2 = 0.75	545.11
280 K, 3000.3 kPa, x2 = 0.25	582.13
280 K, 3006.4 kPa, x2 = 0.5	565.46
280 K, 3018.4 kPa, x2 = 0.75	546.06
280 K, 3502.3 kPa, x2 = 0.25	582.88
280 K, 3504.2 kPa, x2 = 0.5	566.28
280 K, 3513.7 kPa, x2 = 0.75	546.96
280 K, 4015 kPa, x2 = 0.25	583.63
280 K, 4015 kPa, x2 = 0.75	547.86
280 K, 4016.7 kPa, x2 = 0.5	567.11
280 K, 4505.3 kPa, x2 = 0.25	584.35
280 K, 4508.2 kPa, x2 = 0.75	548.75
280 K, 4524.6 kPa, x2 = 0.5	567.93
280 K, 4984.9 kPa, x2 = 0.75	549.59
280 K, 4998.7 kPa, x2 = 0.5	568.69
280 K, 5019.7 kPa, x2 = 0.25	585.09
280 K, 5502.7 kPa, x2 = 0.25	585.78
280 K, 5506.3 kPa, x2 = 0.5	569.47
280 K, 5508.8 kPa, x2 = 0.75	550.5
280 K, 6005.9 kPa, x2 = 0.25	586.49
280 K, 6009.4 kPa, x2 = 0.5	570.25
280 K, 6043.7 kPa, x2 = 0.75	551.39
280 K, 6507.4 kPa, x2 = 0.5	571.01
280 K, 6517.1 kPa, x2 = 0.25	587.21
280 K, 6530.4 kPa, x2 = 0.75	552.22
280 K, 6972.3 kPa, x2 = 0.5	571.72
280 K, 7009.3 kPa, x2 = 0.25	587.89
280 K, 7012.2 kPa, x2 = 0.75	553.04
300 K, 990 kPa, x2 = 0.5	536.26
300 K, 1002.3 kPa, x2 = 0.75	514.75
300 K, 1005.5 kPa, x2 = 0.25	555.26
300 K, 1504.4 kPa, x2 = 0.25	556.28
300 K, 1504.7 kPa, x2 = 0.75	516.09
300 K, 1541.4 kPa, x2 = 0.5	537.52
300 K, 1950.9 kPa, x2 = 0.5	538.44
300 K, 1972.1 kPa, x2 = 0.75	517.33
300 K, 2002.5 kPa, x2 = 0.25	557.25
300 K, 2461.4 kPa, x2 = 0.5	539.56
300 K, 2497.9 kPa, x2 = 0.25	558.21
300 K, 2507.7 kPa, x2 = 0.75	518.69
300 K, 2946.2 kPa, x2 = 0.5	540.6
300 K, 3009.2 kPa, x2 = 0.75	519.95
300 K, 3012.5 kPa, x2 = 0.25	559.2
300 K, 3505.6 kPa, x2 = 0.5	541.79
300 K, 3507.9 kPa, x2 = 0.25	560.13
300 K, 3511.5 kPa, x2 = 0.75	521.18
300 K, 3998.7 kPa, x2 = 0.25	561.02
300 K, 4015.9 kPa, x2 = 0.5	542.85
300 K, 4017.5 kPa, x2 = 0.75	522.39
300 K, 4511.3 kPa, x2 = 0.25	561.97

mass density [kg/m3]
Conditions	240 K	260 K	280 K
x2 = 0.25	–	600.21	577.86
x2 = 0.5	606.37	584.58	560.91
x2 = 0.75	589.36	566.05	541.14
